Legend:
Assay type in all cases: biochemical
[1] = molecular target: PLK2 (Homo sapiens, UniProt Q9NYY3); assay: PLK TR-FRET peptide assay, PLK2; details: for IC50: PLK TR-FRET peptide assay, GST-PLK2, 60 min reaction, read-out: Plk2 IC50; for relative PLK2 activity of the enantiomers: compared with the opposite enantiomer
[2] = molecular target: PLK1 (Homo sapiens, UniProt P53350); assay: PLK TR-FRET peptide assay, PLK1; details: GST-PLK1, 60 min reaction
[3] = molecular target: PLK3 (Homo sapiens, UniProt Q9H4B4); assay: PLK TR-FRET peptide assay, PLK3; details: GST-PLK3, 15 min reaction, read-out: Plk3 IC50
Sequence of PLK3 (Q9H4B4 whole entry): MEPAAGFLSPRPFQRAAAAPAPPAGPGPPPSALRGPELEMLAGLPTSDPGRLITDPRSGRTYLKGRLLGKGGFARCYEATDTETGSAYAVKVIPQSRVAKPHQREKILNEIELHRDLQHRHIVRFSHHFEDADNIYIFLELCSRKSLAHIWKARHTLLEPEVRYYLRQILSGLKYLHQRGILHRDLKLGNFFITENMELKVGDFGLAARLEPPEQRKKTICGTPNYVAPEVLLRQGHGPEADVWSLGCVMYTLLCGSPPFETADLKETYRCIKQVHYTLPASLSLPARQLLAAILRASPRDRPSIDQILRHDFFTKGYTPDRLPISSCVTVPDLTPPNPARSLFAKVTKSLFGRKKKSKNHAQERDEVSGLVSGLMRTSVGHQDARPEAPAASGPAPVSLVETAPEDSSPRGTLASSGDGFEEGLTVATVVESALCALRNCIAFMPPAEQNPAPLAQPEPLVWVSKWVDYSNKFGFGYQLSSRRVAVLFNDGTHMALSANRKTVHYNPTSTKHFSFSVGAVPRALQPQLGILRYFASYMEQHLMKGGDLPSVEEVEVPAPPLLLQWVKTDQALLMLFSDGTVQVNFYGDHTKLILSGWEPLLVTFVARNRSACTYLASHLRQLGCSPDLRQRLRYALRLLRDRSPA

Sequence of PLK2 (Q9NYY3 whole entry): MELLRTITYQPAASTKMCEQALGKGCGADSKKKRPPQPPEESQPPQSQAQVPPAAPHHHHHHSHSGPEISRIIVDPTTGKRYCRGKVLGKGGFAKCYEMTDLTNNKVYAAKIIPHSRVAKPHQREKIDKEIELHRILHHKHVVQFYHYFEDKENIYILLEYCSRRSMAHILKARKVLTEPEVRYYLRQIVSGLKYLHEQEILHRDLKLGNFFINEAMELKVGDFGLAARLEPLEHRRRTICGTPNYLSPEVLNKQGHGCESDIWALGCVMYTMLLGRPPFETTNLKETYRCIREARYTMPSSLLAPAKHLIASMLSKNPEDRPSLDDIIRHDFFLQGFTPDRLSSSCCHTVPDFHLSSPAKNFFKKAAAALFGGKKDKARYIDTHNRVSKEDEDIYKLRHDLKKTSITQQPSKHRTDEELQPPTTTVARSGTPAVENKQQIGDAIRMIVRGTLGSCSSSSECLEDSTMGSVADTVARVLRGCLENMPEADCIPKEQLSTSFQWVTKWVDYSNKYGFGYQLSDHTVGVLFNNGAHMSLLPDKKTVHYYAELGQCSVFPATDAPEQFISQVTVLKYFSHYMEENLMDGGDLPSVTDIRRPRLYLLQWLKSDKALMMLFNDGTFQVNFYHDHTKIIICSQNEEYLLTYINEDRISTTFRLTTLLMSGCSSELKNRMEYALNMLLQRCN
Sequence of PLK1 (P53350 whole entry): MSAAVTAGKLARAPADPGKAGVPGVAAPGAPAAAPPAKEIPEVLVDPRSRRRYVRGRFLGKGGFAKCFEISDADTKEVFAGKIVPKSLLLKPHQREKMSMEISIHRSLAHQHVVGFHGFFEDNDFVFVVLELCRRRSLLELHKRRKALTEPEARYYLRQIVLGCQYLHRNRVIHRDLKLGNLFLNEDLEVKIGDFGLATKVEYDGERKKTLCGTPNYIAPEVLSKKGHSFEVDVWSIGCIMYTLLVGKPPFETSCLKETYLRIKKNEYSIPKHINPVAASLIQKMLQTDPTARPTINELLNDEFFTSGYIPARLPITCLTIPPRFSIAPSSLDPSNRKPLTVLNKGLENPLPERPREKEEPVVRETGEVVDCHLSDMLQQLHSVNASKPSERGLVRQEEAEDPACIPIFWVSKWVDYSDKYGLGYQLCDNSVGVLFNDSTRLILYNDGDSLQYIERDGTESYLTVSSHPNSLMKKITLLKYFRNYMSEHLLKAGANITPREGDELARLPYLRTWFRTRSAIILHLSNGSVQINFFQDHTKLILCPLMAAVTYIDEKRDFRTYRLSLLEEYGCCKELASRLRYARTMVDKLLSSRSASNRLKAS

Row | Compound | IC50 [1] [µM] | IC50 [2] [µM] | IC50 [3] [µM] | relative PLK2 activity of the enantiomers [1]
1 | CC[C@@H]1C(=O)N(C)c2cnc(-n3ccnc3C3CCOCC3)nc2N1C1CCCC1 [Example 90, (R)-8-cyclopentyl-7-ethyl-5-methyl-2-(2-(tetrahydro-2H-pyran-4-yl)-1H-imidazol-1-yl)-7,8-dihydropteridin-6(5H)-one] | 1 to 10 | 1 to 10 | 10 to 50 | 
2 | CC[C@@]12CCCN1c1nc(-c3cn[nH]c3-c3nccs3)ncc1N(C)C2=O [Example 338, (S)-6a-ethyl-5-methyl-2-(5-(thiazol-2-yl)-1H-pyrazol-4-yl)-6a,7,8,9-tetrahydropyrrolo[2,1-h]pteridin-6(5H)-one] | 10 to 50 | > 50 | > 50 | 
3 | CC[C@@]12CCC(=O)N1c1nc(-n3ccnc3-c3ccccc3)ncc1N(C)C2=O [Example 258, (S)-6a-ethyl-5-methyl-2-(2-phenyl-1H-imidazol-1-yl)-7,8-dihydropyrrolo[2,1-h]pteridine-6,9(5H,6aH)-dione] | 10 to 50 | > 50 | > 50 | 
4 | CC[C@@H]1C(=O)N(C)c2cnc(-c3ccncc3)nc2N1C(C)C [Example 23, (R)-7-ethyl-8-isopropyl-5-methyl-2-(pyridin-4-yl)-7,8-dihydropteridin-6(5H)-one] | < 1 | 1 to 10 | > 50 | 
5 | CC[C@@H]1C(=O)N(C)c2cnc(-c3cccc(NS(C)(=O)=O)c3)nc2N1C1CCCC1 [Example 53, (R)—N-(3-(8-cyclopentyl-7-ethyl-5-methyl-6-oxo-5,6,7,8-tetrahydropteridin-2-yl)phenyl)methanesulfonamide] | < 1 | 1 to 10 | 1 to 10 | 
6 | CCC12CCCCN1c1nc(-n3ccnc3-c3cccc(F)c3F)ncc1N(C)C2=O (racemic) [Example 248, (+/−) 2-(2-(2,3-difluorophenyl)-1H-imidazol-1-yl)-6a-ethyl-5-methyl-7,8,9,10-tetrahydro-5H-pyrido[2,1-h]pteridin-6(6aH)-one] | < 1 | 1 to 10 | 10 to 50 | 
7 | CC[C@@]12CCCN1c1nc(-n3ccnc3-c3cccc(F)c3)ncc1N(C)C2=O [Example 225, (S)-6a-ethyl-2-(2-(3-fluorophenyl)-1H-imidazol-1-yl)-5-methyl-6a,7,8,9-tetrahydropyrrolo[2,1-h]pteridin-6(5H)-one] | < 1 | 1 to 10 | 10 to 50 | 
8 | CC[C@@]12CCCN1c1nc(-n3nccc3-c3ccccc3)ncc1N(C)C2=O [Example 193, (S)-6a-ethyl-5-methyl-2-(5-phenyl-1H-pyrazol-1-yl)-6a,7,8,9-tetrahydropyrrolo[2,1-h]pteridin-6(5H)-one] | 1 to 10 | 1 to 10 | 1 to 10 | 
9 | CCC1C(=O)N(C)c2cnc(-n3ccnc3)nc2N1c1cccc(-c2cncnc2)c1 (centres unmarked) [Example 333, 7-ethyl-2-(1H-imidazol-1-yl)-5-methyl-8-(3-(pyrimidin-5-yl)phenyl)-7,8-dihydropteridin-6(5H)-one] | 10 to 50 | 10 to 50 | > 50 | 
10 | CC[C@@H]1C(=O)N(C)c2cnc(-n3ccnc3-c3nccc4ccccc34)nc2N1C(C)C [Example 196, (R)-7-ethyl-8-isopropyl-2-(2-(isoquinolin-1-yl)-1H-imidazol-1-yl)-5-methyl-7,8-dihydropteridin-6(5H)-one] | 1 to 10 | 10 to 50 | > 50 | 
11 | CC[C@@H]1C(=O)N(C)c2cnc(-n3ccnc3-c3cncc(F)c3)nc2N1C1CCCC1 [Example 99, (R)-8-cyclopentyl-7-ethyl-2-(2-(5-fluoropyridin-3-yl)-1H-imidazol-1-yl)-5-methyl-7,8-dihydropteridin-6(5H)-one] | < 1 | < 1 | < 1 | 
12 | CC[C@@H]1C(=O)N(C)c2cnc(-c3cn[nH]c3-c3cscn3)nc2N1C(C)C [Example 320, (R)-7-ethyl-8-isopropyl-5-methyl-2-(5-(thiazol-4-yl)-1H-pyrazol-4-yl)-7,8-dihydropteridin-6(5H)-one] | < 1 | 1 to 10 | 1 to 10 | 
13 | CC[C@@H]1C(=O)N(C)c2cnc(-c3ccncc3N)nc2N1C(C)C [Example 93, (R)-2-(3-aminopyridin-4-yl)-7-ethyl-8-isopropyl-5-methyl-7,8-dihydropteridin-6(5H)-one] | < 1 | 1 to 10 | > 50 | 

The next lines start with the values.

Row | IC50 [1] [µM] | IC50 [2] [µM] | IC50 [3] [µM] | relative PLK2 activity of the enantiomers [1] | Compound
14 | 1 to 10 | 10 to 50 | > 50 |  | CC[C@@]12CCCN1c1nc(-n3ncnc3-c3cccc4ncccc34)ncc1N(C)C2=O [Example 219, (S)-6a-ethyl-5-methyl-2-(5-(quinolin-5-yl)-1H-1,2,4-triazol-1-yl)-6a,7,8,9-tetrahydropyrrolo[2,1-h]pteridin-6(5H)-one]
15 | > 50 | > 50 | > 50 |  | CC[C@@H]1C(=O)N(C)c2cnc(-c3ccncc3CNC(=O)OC(C)(C)C)nc2N1C(C)C [Example 107, (R)-tert-butyl (4-(7-ethyl-8-isopropyl-5-methyl-6-oxo-5,6,7,8-tetrahydropteridin-2-yl)pyridin-3-yl)methylcarbamate]
16 | 1 to 10 | 1 to 10 | 1 to 10 |  | CC[C@@H]1C(=O)N(C)c2cnc(-c3cncnc3-c3nccs3)nc2N1C(C)C [Example 197, (R)-7-ethyl-8-isopropyl-5-methyl-2-(4-(thiazol-2-yl)pyrimidin-5-yl)-7,8-dihydropteridin-6(5H)-one]
17 | < 1 | 1 to 10 | 10 to 50 |  | CC[C@@H]1C(=O)N(C)c2cnc(-n3ccnc3-c3ccccc3)nc2N1C1COC1 [Example 335, (R)-7-ethyl-5-methyl-8-(oxetan-3-yl)-2-(2-phenyl-1H-imidazol-1-yl)-7,8-dihydropteridin-6(5H)-one]
18 | 1 to 10 | 10 to 50 | 10 to 50 |  | CC[C@@H]1C(=O)N(C)c2cnc(-c3ccncc3CNC(C)=O)nc2N1C1CCCC1 [Example 122, (R)—N-((4-(8-cyclopentyl-7-ethyl-5-methyl-6-oxo-5,6,7,8-tetrahydropteridin-2-yl)pyridin-3-yl)methyl)acetamide]
19 | 1 to 10 | 1 to 10 | 10 to 50 |  | CC[C@@H]1C(=O)N(C)c2cnc(-n3ccnc3N3CCCC3=O)nc2N1C1CCCC1 [Example 82, (R)-8-cyclopentyl-7-ethyl-5-methyl-2-(2-(2-oxopyrrolidin-1-yl)-1H-imidazol-1-yl)-7,8-dihydropteridin-6(5H)-one]
20 | < 1 | < 1 | 1 to 10 | more active compound | [2H]C([2H])([2H])N1C(=O)[C@@H](C([2H])([2H])C([2H])([2H])[2H])N(C([2H])(C([2H])([2H])[2H])C([2H])([2H])[2H])c2nc(-n3ccnc3-c3cccc(F)c3)ncc21 [Example 202, (R)-7-perdeuteroethyl-2-(2-(3-fluorophenyl)-1H-imidazol-1-yl)-8-perdeuteroisopropyl-5-trideuteromethyl-7,8-dihydropteridin-6(5H)-one]
21 | 1 to 10 | 1 to 10 | 10 to 50 |  | CC[C@@H]1CC[C@@]2(CC)C(=O)N(C)c3cnc(-n4ccnc4)nc3N12 [Example 334, (6aS,9R)-6a,9-diethyl-2-(1H-imidazol-1-yl)-5-methyl-6a,7,8,9-tetrahydropyrrolo[2,1-h]pteridin-6(5H)-one]
22 | 1 to 10 | 1 to 10 | > 50 |  | CC[C@@H]1C(=O)N(C)c2cnc(-c3ccncc3NS(=O)(=O)c3ccccc3)nc2N1C(C)C [Example 120, (R)—N-(4-(7-ethyl-8-isopropyl-5-methyl-6-oxo-5,6,7,8-tetrahydropteridin-2-yl)pyridin-3-yl)benzenesulfonamide]
23 | < 1 | 1 to 10 | 1 to 10 |  | CC[C@@H]1C(=O)N(C)c2cnc(-n3ccnc3-c3cc(Cl)cc(Cl)c3)nc2N1C(C)C [Example 185, (R)-2-(2-(3,5-dichlorophenyl)-1H-imidazol-1-yl)-7-ethyl-8-isopropyl-5-methyl-7,8-dihydropteridin-6(5H)-one]
24 | 10 to 50 | > 50 | > 50 |  | CN1C(=O)[C@H](CC(F)(F)F)N(CCC(F)(F)F)c2nc(-n3ccnc3-c3ccc(F)cc3F)ncc21 [Example 294, (S)-2-(2-(2,4-difluorophenyl)-1H-imidazol-1-yl)-5-methyl-7-(2,2,2-trifluoroethyl)-8-(3,3,3-trifluoropropyl)-7,8-dihydropteridin-6(5H)-one]
25 | < 1 | 1 to 10 | 1 to 10 |  | CC[C@@H]1C(=O)N(C)c2cnc(-c3nccnc3-c3ccc(F)cc3)nc2N1C(C)C [Example 177, (R)-7-ethyl-2-(3-(4-fluorophenyl)pyrazin-2-yl)-8-isopropyl-5-methyl-7,8-dihydropteridin-6(5H)-one]
26 | 1 to 10 | 1 to 10 | > 50 |  | CCC1C(=O)N(C)c2cnc(-n3ccnc3)nc2N1c1ccccc1 (centres unmarked) [Example 300, 7-ethyl-2-(1H-imidazol-1-yl)-5-methyl-8-phenyl-7,8-dihydropteridin-6(5H)-one]
27 | < 1 | 10 to 50 | 1 to 10 |  | CC[C@@H]1C(=O)N(C)c2cnc(-n3ccnc3-c3ccncc3)nc2N1C(C)C [Example 150, (R)-7-ethyl-8-isopropyl-5-methyl-2-(2-(pyridin-4-yl)-1H-imidazol-1-yl)-7,8-dihydropteridin-6(5H)-one]
28 | < 1 | 1 to 10 | 1 to 10 | more active compound | CC[C@@]12CCCCN1c1nc(-n3ccnc3-c3cccc(F)c3F)ncc1N(C)C2=O [Example 259, (S)-2-(2-(2,3-difluorophenyl)-1H-imidazol-1-yl)-6a-ethyl-5-methyl-7,8,9,10-tetrahydro-5H-pyrido[2,1-h]pteridin-6(6aH)-one]

— patent US8541418B2, “Inhibitors of polo-like kinase” (Elan Pharmaceutical, Inc., priority 2009, dated 2013)
